{
  "source": "paper PMC12703741",
  "about": "“Light-Activated Metal-Dependent Protein Degradation: A Heterobifunctional Ruthenium(II) Photosensitizer Targeting New Delhi Metallo-β-lactamase 1” (Journal of the American Chemical Society, 2025)",
  "key": {"[1]": {"experiment": "Chromatographic LogD measurement", "conditions": "pH 7.4"}, "E. coli empty": {"test_system": "E. coli empty", "conditions": "dark and light samples equivalent"}, "[2]": {"experiment": "Photostability by UV-Vis in PBS", "assay_type": "physicochemical", "conditions": "10 μM, 450 nm", "experimental": "Both complexes were stable up to and including 23 J cm^–2 (Figure S5). The lifetime of the excited state is one of the key factors which affect ROS generation. […] To quantify the generation of ^1O2 produced by the complexes, 1,3-diphenylisobenzofuran (DPBF) was used as a ^1O2 scavenger. […]\nspectra of both compounds in PBS ( 10 μM) under light irradiation (450 nm, 23 J cm -2 over 240 […]\n1.2.4 Electron Paramagnetic Resonance (EPR)\nAll EPR measurements were performed using a Bruker Magnettech spectrometer (ESR5000), Bruker (Germany), at room temperature. EPR samples were transferred to a 20 μL BLAUBRAND micropipette and spectra were recorded at 9.47 GHz microwave frequency, 2 mW microwave power, 100 kHz modulation frequency and 0.1 mT modulation amplitude. The field was scanned from 331.3 mT to 343.3 mT and a single scan was acquired."}, "RAW264.7": {"test_system": "RAW264.7", "conditions": "RAW"}},
  "note": "Where two headings read alike, the source gives them in different places.",
  "data": [
    {"smiles": "F[P-](F)(F)(F)(F)F.F[P-](F)(F)(F)(F)F.[Ru+2].c1ccc(-c2ccccn2)nc1.c1ccc(-c2ccccn2)nc1.c1ccc(-n2cnc3c4cccnc4c4ncccc4c32)cc1", "note": "[Ru2, [Ru(2,2'-bipyridine)2(1-phenyl-imidazo[4,5,f][1,10]phenanthroline)](PF6)2]", "values": [
      {"measurement": "ChromLogD", "setting": "[1]", "result": 1.21},
      {"measurement": "LD50", "setting": "HCT116; HCT116, 24 h", "result": "> 50", "unit": "µM"},
      {"measurement": "LD50", "setting": "HCT116; HCT116, 48 h", "result": "> 50", "unit": "µM"},
      {"measurement": "MIC", "setting": "E. coli empty", "result": ">160", "unit": "µM"},
      {"measurement": "Light dose up to which complex is stable", "setting": "[2]", "result": "≥ 23", "unit": "J cm^–2"},
      {"measurement": "MIC", "setting": "E. coli NDM-1; E. coli NDM-1, dark and light samples equivalent", "result": ">160", "unit": "µM"},
      {"measurement": "Fold change in Meropenem MIC", "setting": "E. coli NDM-1; compound 5 μM, dark", "result": 0, "unit": "fold"},
      {"measurement": "Fold change in Meropenem MIC", "setting": "E. coli NDM-1; compound 5 μM, light 450 nm, 60 J cm^-2", "result": 0, "unit": "fold"},
      {"measurement": "Fold change in Meropenem MIC", "setting": "E. coli NDM-1; compound 10 μM, dark", "result": 0, "unit": "fold"},
      {"measurement": "Fold change in Meropenem MIC", "setting": "E. coli NDM-1; compound 10 μM, light 450 nm, 60 J cm^-2", "result": 0, "unit": "fold"},
      {"measurement": "Fold change in Meropenem MIC", "setting": "E. coli NDM-1; compound 20 μM, dark", "result": 0, "unit": "fold"},
      {"measurement": "Fold change in Meropenem MIC", "setting": "E. coli NDM-1; compound 20 μM, light 450 nm, 60 J cm^-2", "result": 0, "unit": "fold"},
      {"measurement": "Fold change in Meropenem MIC", "setting": "E. coli NDM-1; compound 40 μM, dark", "result": 0, "unit": "fold"},
      {"measurement": "Fold change in Meropenem MIC", "setting": "E. coli NDM-1; compound 40 μM, light 450 nm, 60 J cm^-2", "result": 0, "unit": "fold"},
      {"measurement": "Fold change in Meropenem MIC", "setting": "E. coli NDM-1; compound 80 μM, dark", "result": 0, "unit": "fold"},
      {"measurement": "Fold change in Meropenem MIC", "setting": "E. coli NDM-1; compound 80 μM, light 450 nm, 60 J cm^-2", "result": 0, "unit": "fold"},
      {"measurement": "LD50", "setting": "RAW264.7; 24 h", "result": "> 50", "unit": "µM"},
      {"measurement": "LD50", "setting": "RAW264.7; 48 h", "result": "> 50", "unit": "µM"}
    ]}
  ]
}
